{"source": "patent US8541607B2", "about": "“Disulfide, sulfide, sulfoxide, and sulfone derivatives of cyclic sugars and uses thereof” (Lacer, S.A., priority 2003, dated 2013)", "key": {"[1]": {"tested_on": "HUVEC cells", "test": "In vitro protection against cytotoxicity induced by oxygen radicals (peroxynitrite), XTT method", "type": "cell-based, human", "conditions": "HUVEC pre-treated with 50 μM compound for one hour, then 800 μM peroxynitrite overnight", "source_text": "The method used is substantially the same as described by Caveda L., et al. (J. Clin. Invest. […]; 98: 886-893).\nFor the determination of the capacity to inhibit the cytotoxicity induced by oxygen radicals Human Umbilical Vein Endothelial Cells (HUVEC) were used. HUVEC were isolated and cultured in M199 and 20% FCS (Fetal Calf Serum).\nTest XTT assay is based on […] by the metabolically active cells of the salt of tetrazolio XTT to form an orange product, the formazan dye formed is soluble and is directly quantified using an spectrophotometer.\nHUVEC cells were cultivated until a sub-confluence status in a 96 well tissue culture plate and pre-treated with 50 μM of the compound for one hour. After that, cells were treated with 800 μM of peroxynitrite for an overnight.\nAfter overnight incubation cells were incubated with the yellow XTT solution (final concentration 0.3 mg/ml) for 4 hours. After this incubation period, orange formazan solution was formed, which was spectrophotometrically quantified using an ELISA plate reader at 450 nm\nThe results are shown in table 15 and are expressed as percentage of death cells."}, "[2]": {"tested_on": "human microvascular endothelial cells (HMEC-1)", "test": "Inhibition of LDL-Dil transcytosis through HMEC-1", "type": "cell-based", "conditions": "2 h, mean ± s.e.m.; for Inhibition of LDL transcytosis, % of inhibition to control, Stimulated cells: HMEC-1 activated with 100 μM histamine; for Inhibition of LDL transcytosis, % of inhibition to control, Resting cells: non activated HMEC-1", "source_text": "The method used in the assays to determine the effect of the compounds on LDL transcytosis in human microvascular endothelial cells is substantially the same as described in Colomé C. et al; Atherosclerosis 2000; 149: 295-302. This test allows a prediction on the anti-atherosclerotic potential of the compounds, since the accumulation of LDL in the vascular wall as a consequence of a vascular endothelial cell active transport is one of the first steps in the development of atherosclerosis.\nThe method used in the assays to isolate LDL particles from fresh human plasma and the labelling with Di1 is substantially the same as described in Pedreño J. et al., Atherosclerosis 2001; 155: 99-112, and Stephan Z. F. and Yuracheck E. C. J. Lipid Res. 1993; 34:325-330\nActivated (100 μM histamine) and non activated HMEC-1 were cultivated in the upper well of inserted of coculture until to reach confluence (Falcon HTS FluorBloK). Then, LPL-Dil (up to 200 μg/ml) was added and cells were incubated for 2 h in the presence and absence of compounds. After these two hours, transcytosis of LDL-Dil particles through endothelial cells was assessed by determination of the presence of fluorescence in the lower well of insert of coculture. Results are expressed as percentage of inhibition respect to control in the absence of compounds)."}, "[3]": {"tested_on": "New Zealand White rabbits fed 1% cholesterol diet", "test": "Atherogenesis in rabbits fed on high cholesterol diet", "type": "in vivo, rabbit", "procedure": "The method used is substantially the same as described in Shore B, Shore V., In: Day CE (ed) Atherosclerosis Drug Discovery, Plenum Press, New York and London, pp 123-141, 1976.\nTwenty-one male New Zealand White rabbits (10 weeks old at the beginning of the protocol) were maintained under standardized conditions (22° C., 40% to 60% humidity) with regular day/night cycle and free access to water. The animals were randomly assigned to 1 of 3 groups. Group 1 (n=5) received standard maintenance diet for 75 days; group 2 (n=16) received the same diet but supplemented with 1% (wt/wt) cholesterol for 45 days. At the end of this period, group 2 was classified into two randomly groups. The treated-group (n=9) receiving for additional 30 days 1.9 mg/kg/day of compound 12 (maintaining the 1% cholesterol in its diet), and the non-treated group (n=[…]) receiving a diet with a 1% of cholesterol for additional 30 days.\nStudy variables included triglycerides and total cholesterol. Animals were euthanized on day 75 after the start of the protocol with pentobarbital i.v. The entire aorta was removed 1 or 2 cm into the iliac arteries and fixed in buffer phosphate 0.1 M (pH 7.4) with glutaraldehyde (4%). Macroscopic and microscopic analyses of the samples were performed in a blinded fashion. Aortas were dissected and stained with Red Oil. Adventitial fat was removed, and aortas were opened longitudinally, immersed in Red Oil solution for overnight, washed in propylenglycol and fixed onto a flat surface. Images of the aortas were taken with a standard camera. Subsequently, 3 sections were taken from the aortic arch area, the thoracic aorta, and at the abdominal aorta (renal orifices). Sections were paraffin-embedded, were cut with a microtome Ultracut (Spain) and stained conventionally with hematosiline eosin. Images of aortas stained with Red Oil and hematosiline eosin were taken with a standard camera. Images were imported into Photoshop (Adobe) with a AGFA slide scanner. By means of the procedure previously described by Lillie RD (Lillie, R. D., 1994, Stain Technology, vol. 19, pp 55) the surface of injury in all the aorta and the thickness of the intima in histological samples was determined. The surface or area of the atherosclerotic injury (evaluated from the stained aortas with the Red Oil) are determined by the number of pixels of the image turned to mm^2. The intima thickness of the arteria (evaluated from the stained histological samples with Haematosiline-Eosin) was quantified in mm in a similar way to that described the surface or area of the atherosclerotic injury. For it, the sections that contained injuries of fatty striae were selected and the thickness of the intima was determined (from the arterial media to endothelium). The mean thickness of the lesion area was assessed in representative sections per aortic quadrant, and the statistical mean was calculated."}, "[4]": {"tested_on": "arterial rings", "test": "Test of vasorelaxation on arterial rings contracted with phenylephrine", "type": "cell-based", "conditions": "artery ring contracted with 1 μM Phenylephrine; mean ± s.d.; read-out: EC50 (vasodilatation equal to 50% of the maximum tone)", "procedure": "The method used in the assays is substantially the same as described in following references: • * Furchgot, R. F., “Methods in nitric oxide research”; Feelisch & Stamler, eds., John Wiley & Sons, Chichester, England, pp 567-581. • * Trongvanbichnam K., et al., Jpn. J. Pharmacol. 71 (1996); 167-173. • * Sales, E., at al., Eur. J. Pharmacol. 258 (1994); 47-55.\nThe different compounds are tested at 5 different concentrations, at a concentration range from 0.0001 to 10 mM, using from 6 to 9 arterial rings for each compound. The obtained results are compared to those from the isosorbide 5-mononitrate, which is used as reference product.\nThe results are shown in table 1 below and are provided as EC50 (effective concentration 50), which is the concentration of each of the tested, compounds yielding a vasodilatation equal to 50% of the maximum tone at which the artery ring has been contracted with 1 μM of Phenylephrine."}, "[5]": {"conditions": "1.9 mg/kg/day for 30 days, 1% cholesterol diet, end, mean ± s.e.m."}, "[6]": {"conditions": "treated group, basal, mean ± s.e.m."}}}
{"smiles": "CC(=O)S[C@H]1CO[C@H]2[C@@H]1OC[C@H]2O[N+](=O)[O-]", "note": "[(12), 2-acetylthio-isosorbide-5-mononitrate]", "values": [{"measurement": "% of death cells", "setting": "[1]", "value": 50, "unit": "%"}, {"measurement": "Inhibition of LDL transcytosis, % of inhibition to control, Stimulated cells", "setting": "[2]", "value": "80 ± 12", "unit": "%"}, {"measurement": "Inhibition of LDL transcytosis, % of inhibition to control, Resting cells", "setting": "[2]", "value": "51 ± 19", "unit": "%"}, {"measurement": "Plasmatic Total cholesterol, End", "setting": "[3]; [5]", "value": "1461 ± 147", "unit": "mg/dL"}, {"measurement": "Plasmatic Triglycerides, End", "setting": "[3]; [5]", "value": "347 ± 82", "unit": "mg/dL"}, {"measurement": "influence upon lipid metabolism (plasma lipids vs control)", "setting": "[3]; 1.9 mg/kg/day for 30 days, in words", "value": "did not influence upon lipid metabolism"}, {"measurement": "Plasmatic Total cholesterol, Basal", "setting": "[3]; [6]", "value": "33.3 ± 4.1", "unit": "mg/dL"}, {"measurement": "Plasmatic Triglycerides, Basal", "setting": "[3]; [6]", "value": "121 ± 34", "unit": "mg/dL"}, {"measurement": "EC50", "setting": "[4]", "value": "23 ± 10", "unit": "µM"}]}
{"smiles": "O=[N+]([O-])O[C@@H]1CO[C@H]2[C@@H]1OC[C@@H]2S", "note": "[(1), 2-thioisosorbide 5-mononitrate]", "values": [{"measurement": "% of death cells", "setting": "[1]", "value": 80, "unit": "%"}, {"measurement": "Inhibition of LDL transcytosis, % of inhibition to control, Stimulated cells", "setting": "[2]", "value": "122 ± 8", "unit": "%"}, {"measurement": "Inhibition of LDL transcytosis, % of inhibition to control, Resting cells", "setting": "[2]", "value": "58 ± 15", "unit": "%"}, {"measurement": "EC50", "setting": "[4]", "value": "41 ± 6", "unit": "µM"}]}
